Assay results as given in BindingDB's records for doi:10.1016/j.bmcl.2004.09.053 (Avenida De La Industria, 2004).
pIC50: −log10 of the molar value.

Key:
Experiment in all cases: CDK Kinase Inhibition Assay
[1] = target: Cyclin-dependent kinase 2/G1/S-specific cyclin-E1 (Homo sapiens, UniProt P24941)
Method: (§1) In vitro CDK assay using purified enzyme, was incubated at room temperature with substrate, and test compounds in the presence of ATP/[gamma-33P]ATP. 33P incorporation was measured with a Top Count (Packard). IC50 is the inhibitor concentration which inhibits 50% of kinase activity that catalyzes the transfer of the terminal phosphate from 33P labeled ATP to the substrate.

[2] = target: Cyclin-dependent kinase 4/G1/S-specific cyclin-D1 (Homo sapiens, UniProt P11802); details: 25 °C
Method: as §1

[3] = target: Cyclin-dependent kinase/G2/mitotic-specific cyclin- 1 (Homo sapiens, UniProt P06493); details: 25 °C
Method: as §1

Cyclin-dependent kinase/G2/mitotic-specific cyclin- 1, sequence (P06493 whole entry): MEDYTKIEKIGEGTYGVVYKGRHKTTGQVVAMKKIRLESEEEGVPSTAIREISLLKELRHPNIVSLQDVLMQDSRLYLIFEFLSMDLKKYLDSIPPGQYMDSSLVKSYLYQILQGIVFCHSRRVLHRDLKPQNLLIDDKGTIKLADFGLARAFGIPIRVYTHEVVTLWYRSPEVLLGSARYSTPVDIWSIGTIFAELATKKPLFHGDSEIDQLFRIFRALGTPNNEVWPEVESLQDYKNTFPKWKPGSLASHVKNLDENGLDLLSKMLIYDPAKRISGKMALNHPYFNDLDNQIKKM
Cyclin-dependent kinase/G2/mitotic-specific cyclin- 1, sequence (P14635 whole entry, further chain): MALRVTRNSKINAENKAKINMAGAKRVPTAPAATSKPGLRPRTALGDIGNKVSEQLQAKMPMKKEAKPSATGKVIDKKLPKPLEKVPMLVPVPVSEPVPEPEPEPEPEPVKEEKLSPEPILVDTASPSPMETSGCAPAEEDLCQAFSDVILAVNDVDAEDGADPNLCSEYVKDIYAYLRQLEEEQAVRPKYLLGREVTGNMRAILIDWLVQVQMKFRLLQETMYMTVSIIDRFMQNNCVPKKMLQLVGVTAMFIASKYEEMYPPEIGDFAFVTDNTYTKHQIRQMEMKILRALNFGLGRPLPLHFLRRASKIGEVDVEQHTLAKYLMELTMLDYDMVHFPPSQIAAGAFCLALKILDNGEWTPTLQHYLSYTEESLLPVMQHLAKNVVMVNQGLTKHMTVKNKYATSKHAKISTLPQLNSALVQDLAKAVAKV
Cyclin-dependent kinase 4/G1/S-specific cyclin-D1, sequence (P11802 whole entry): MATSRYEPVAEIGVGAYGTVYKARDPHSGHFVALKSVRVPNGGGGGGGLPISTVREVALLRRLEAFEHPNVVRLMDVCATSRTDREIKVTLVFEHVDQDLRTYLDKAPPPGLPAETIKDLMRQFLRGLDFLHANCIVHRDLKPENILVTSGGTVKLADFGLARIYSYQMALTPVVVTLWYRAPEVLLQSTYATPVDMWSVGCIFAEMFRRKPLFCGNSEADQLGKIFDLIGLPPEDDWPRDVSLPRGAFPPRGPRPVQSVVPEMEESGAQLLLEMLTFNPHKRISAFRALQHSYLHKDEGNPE
Cyclin-dependent kinase 4/G1/S-specific cyclin-D1, sequence (P24385 whole entry, further chain): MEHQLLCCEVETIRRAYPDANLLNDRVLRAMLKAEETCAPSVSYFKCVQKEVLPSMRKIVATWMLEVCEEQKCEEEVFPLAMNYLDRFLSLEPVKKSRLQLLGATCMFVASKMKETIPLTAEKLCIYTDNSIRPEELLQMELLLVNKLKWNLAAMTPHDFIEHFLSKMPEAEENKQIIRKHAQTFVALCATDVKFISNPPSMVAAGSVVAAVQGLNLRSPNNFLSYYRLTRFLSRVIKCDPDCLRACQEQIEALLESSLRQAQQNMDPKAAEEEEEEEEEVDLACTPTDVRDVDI

pIC50 ([1]; 25 °C) | Structure (SMILES) | pIC50 ([1]; pH 7, 22 °C) | pIC50 [2] | pIC50 [3]
6.01 | CCN(CC)CCOc1cc(F)c(C(=O)c2c(N)nc3ccc(C(=O)c4c(Cl)cccc4Cl)cn23)c(F)c1 [6-[(2,6-dichlorophenyl)carbonyl]-3-({4-[2-(diethylamino)ethoxy]-2,6-difluorophenyl}carbonyl)imidazo[1,2-a]pyridin-2-amine] |  |  | 
 | N#C/C=C(\c1ccc2nc(N)c(C(=O)c3c(F)cccc3F)n2c1)c1c(F)cccc1F [(2E)-3-{2-amino-3-[(2,6-difluorophenyl)carbonyl]imidazo[1,2-a]pyridin-6-yl}-3-(2,6-difluorophenyl)prop-2-enenitrile] | 6.80 | 5.81 | 7.28
6.05 | N#C/C=C(/c1ccc2nc(N)c(C(=O)c3c(F)cccc3F)n2c1)c1c(F)cccc1F [(2Z)-3-{2-amino-3-[(2,6-difluorophenyl)carbonyl]imidazo[1,2-a]pyridin-6-yl}-3-(2,6-difluorophenyl)prop-2-enenitrile] |  |  | 
